US10562898B2, “Substituted benzenesulfonamides as inhibitors of alpha-4 beta-7 integrin activity” (EA PHARMA CO., LTD., priority 2016, dated 2020)

System: mouse colitis model induced by transfer of IL-10−/− cells
Experiment: Mouse colitis model induced by transfer of IL-10−/− cells, intestinal tract weight
Format: in vivo
Details: oral, three times per day for 14 days
Method: As a method for preparing mouse colitis model induced by transfer of IL-10^−/− cells, used was the method described in J Crohns Colitis. 2013 December; 7 (11): e533-42.
Each test substance was suspended in a 0.5% methylcellulose aqueous solution to be contained at 30, 10, 3, or 1 mg/mL, and was orally administered with Terumo syringe (1 mL) and a metal probe for mouse in a dose of 10 ml per kilo gram of animal body weight. The administration was performed three times per day for 14 days.
An intestinal tract weight as a medicinal effect indicator was measured by the following method. On the final necropsy day, the large intestine from the anus to just before the cecum was taken out, the content in the intestinal tract was washed away with physiological saline, the moisture was lightly removed, and the weight of the large intestine was measured. The inhibitory rate (%) in each of compound administered groups was figured out based on the average value of intestinal tract weights per group under the setting in which a colitis onset group was scored at 0% and a normal group was scored at 100%.

SMILES	Inhibitory Rate (%) (intestinal tract weight) (Dose 30 mg/kg)	Inhibitory Rate (%) (intestinal tract weight) (Dose 300 mg/kg)	Inhibitory Rate (%) (intestinal tract weight) (Dose 10 mg/kg)	Inhibitory Rate (%) (intestinal tract weight) (Dose 100 mg/kg)
CCOC(=O)[C@H](Cc1ccc(-n2c(=O)c(C)cn(C)c2=O)nc1)NC(=O)c1cc(F)c(NS(=O)(=O)c2ccc(NC(=O)C(C)(C)C)cc2)cc1F [Compound P69]	36.1	51.1	–	–
Cc1cc(=O)n(-c2ccc(C[C@H](NC(=O)c3cc(F)c(NS(=O)(=O)c4ccc(NC(=O)C(C)(C)C)cc4)cc3F)C(=O)OCC(C)C)cn2)c(=O)n1C [Compound P97]	17.5	43.6	–	–
CC(C)OC(=O)[C@H](Cc1ccc(-n2c(=O)ccn(C)c2=O)nc1)NC(=O)c1cc(F)c(NS(=O)(=O)c2ccc(NC(=O)C(C)(C)C)cc2)cc1F [Compound P59]	46.7	58.6	–	–
CC(C)COC(=O)[C@H](Cc1ccc(-n2c(=O)ccn(C)c2=O)nc1)NC(=O)c1cc(F)c(NS(=O)(=O)c2ccc(NC(=O)C(C)(C)C)cc2)cc1F [Compound P74]	12.5	47.1	–	–
CCOC(=O)[C@H](Cc1ccc(-n2c(=O)cc(C)n(C)c2=O)nc1)NC(=O)c1cc(F)c(NS(=O)(=O)c2ccc(NC(=O)C(C)(C)C)cc2)cc1F [Compound P52]	39.9	42.8	–	–
Cc1cn(C)c(=O)n(-c2ccc(C[C@H](NC(=O)c3cc(F)c(NS(=O)(=O)c4ccc(NC(=O)C(C)(C)C)cc4)cc3F)C(=O)OCC(C)C)cn2)c1=O [Compound P73]	21.9	38.8	–	–
Cc1c(C)n(C)c(=O)n(-c2ccc(C[C@H](NC(=O)c3cc(F)c(NS(=O)(=O)c4ccc(NC(=O)C(C)(C)C)cc4)cc3F)C(=O)OC(C)C)cc2)c1=O [Compound P2]	–	–	24.6	52.2
